Measured values from the supplement of paper PMC10949913.

Legend:
Conditions in all cases: 48 h
NCI-H295R [1] = test: area under concentration-response curve (viability) (AUC (a.u.)); higher = less active
Method in brief: (§1)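 Three adrenocortical carcinoma cell lines were exposed for 48 h to library compounds at 11 concentrations in 1,536-well plates, then read by CellTiter-Glo luminescence. Signals were scaled per plate against vehicle and empty-well controls. From fitted concentration-response curves of inhibitory or non-responding classes alone, AC50 and area under the curve were obtained.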

CU-ACC1 [2] = test: as above
Method in brief: as §1

CU-ACC2 = test: as above
Method in brief: as §1

NCI-H295R [3] = test: AC50 viability; higher = less potent
Method in brief: as §1

CU-ACC1 [4] = test: AC50 viability; higher = less potent
Method in brief: as §1

Compound | area under concentration-response curve (NCI-H295R [1]) | area under concentration-response curve (CU-ACC1 [2]) | area under concentration-response curve (CU-ACC2) | AC50 viability (NCI-H295R [3]) | AC50 viability (CU-ACC1 [4])
COc1cc(C(=O)NC(=N)Nc2ccc(C)c(NC(=O)c3ccc(-c4ccccc4)cc3)c2)cc(OC)c1OC | 399 | 403 | 489 | 13.2 µM | 10.5 µM
NC(=O)c1cccc2nc(-c3ccc([C@H]4CCCN4)cc3F)[nH]c12 | 464 | 453 | 576 | 7.42 µM | 8.33 µM
Nc1n[n+]([O-])c2ccccc2[n+]1[O-] | 529 | 474 | 617 | 20.9 µM | 29.5 µM
C[C@H](NC(=O)c1sccc1OCc1ccc(Cl)cc1)c1ccccc1 | 504 | 456 | 571 | 20.9 µM | 10.5 µM
O=C1Nc2ccc(Cl)cc2[C@@](C#CC2CC2)(C(F)(F)F)O1 [listing 1 of 2 here] | 468 | 490 | 589 | 20.9 µM | 20.9 µM
Cc1cc(C)c([S+](=O)([O-])N(CCc2cccc(Br)c2)Cc2ccc(-c3cccc([S+](C)(=O)[O-])c3)cc2)c(C)c1 | 442 | 412 | 417 | 7.42 µM | 0.833 µM
C=C(C)[C@H]1Cc2c(ccc3c2O[C@@H]2COc4cc(OC)c(OC)cc4[C@@H]2C3=O)O1 | 445 | 344 | 479 | 1.05 µM | 0.166 µM
CCNC(=O)C[C@@H]1\N=C(C2=CC=C(Cl)C=C2)/C3=C(C=CC(=C3)OC)[N]4C(=NN=C14)C | 457 | 423 | 500 | 8.33 µM | 13.2 µM
Cc1ccc(NC(=O)c2ccc(CN3CCNCC3)cc2)cc1Nc1nccc(-c2cccnc2)n1 | 518 | 496 | 600 | 26.3 µM | 6.61 µM
CCC[S+](=O)([O-])c1nc(NC2CC2)cc(-c2ccc3c(ccn3C3CC(C)(C)NC(C)(C)C3)c2)n1 | 530 | 490 | 580 | 3.12 µM | 3.93 µM
N#Cc1ccc(-c2c(-c3nnc[nH]3)sc(N3CCOCC3)c2C#N)c(F)c1 | 478 | 465 | 568 | 4.68 µM | 7.42 µM
CN1CCN(c2ccc3nc(-c4cc(C(C)(C)C)c(OCCCC(=O)NCCCN=[N+]=[N-])c(C(C)(C)C)c4)[nH]c3c2)CC1 | 508 | 462 | 566 | 7.42 µM | 7.42 µM
Cc1cnc(NC(=O)Nc2cc(Br)c(C)cc2OC[C@@H]2CNCCO2)cn1 | 524 | 486 | 613 | 4.68 µM | 6.61 µM
Cc1nc(N)ncc1-c1nc(N2CCOCC2)c2sc(C(C)(C)O)cc2n1 | 475 | 333 | 488 | 4.68 µM | 8.33 µM
CC[C@@H](C)Nc1cc(C(=O)NC2CC3CCC(C2)N3c2ccc(C(=O)C3CC3)cn2)c(C)cc1C(N)=O (some centres not stated) | 382 | 346 | 436 | 0.934 µM | 1.32 µM
COC1=C(OCCCN2CCOCC2)C=CC\3=C1/N=C(/NC(=O)C4=CN=C(N)N=C4)N5CC/N=C35 | 452 | 431 | 542 | 0.108 µM | 0.0382 µM
CCOc1cc(CC(=O)N[C@@H](CC(C)C)c2ccccc2N2CCCCC2)ccc1C(=O)O | 188 | 221 | 240 | 5.25 µM | 0.0059 µM
CCN1C(=O)C\N=C/2N\C=C(/N=C12)C3=C(C)N=C(C=C3)C4=NN=C[NH]4 | 458 | 404 | 489 | 13.2 µM | 10.5 µM
Cc1nc(-c2cn3c(n2)-c2ccc(-c4cnn(C(C)(C)C(N)=O)c4)cc2OCC3)n(C(C)C)n1 | 458 | 414 | 528 | 0.934 µM | 0.132 µM
ONC(=O)C1=CC=C(C=C1)C/2=N/C3=CC=CC=C3OC4=C2C=CC=C4 | 557 | 362 | 507 | 16.6 µM | 16.6 µM
C[C@H]1[C@H](O)O[C@@H]2O[C@@]3(C)CC[C@H]4[C@H](C)CC[C@@H]1[C@@]24OO3 | 549 | 494 | 604 | 20.9 µM | 6.61 µM

Compound | area under concentration-response curve (NCI-H295R [1]) | area under concentration-response curve (CU-ACC1 [2]) | area under concentration-response curve (CU-ACC2) | AC50 viability (NCI-H295R [3]) | AC50 viability (CU-ACC1 [4])
O=C(Nc1cccnc1)N1CCC(Cc2cccc(Oc3ccc(C(F)(F)F)cn3)c2)CC1 | 500 | 406 | 559 | 18.6 µM | 5.25 µM
COc1c(N2C[C@@H]3CCCN[C@@H]3C2)c(F)cc2c(=O)c(C(=O)O)cn(C3CC3)c12.Cl.O | 399 | 400 | 484 | 0.118 µM | 0.525 µM
Cc1cnc(Nc2ccc(N3CCN(C)CC3)cc2)nc1Nc1cccc([S+](=O)([O-])NC(C)(C)C)c1 | 421 | 466 | 529 | 9.34 µM | 14.8 µM
Cc1ccc([S+](=O)([O-])Cc2nc(-c3ccc(C(=O)NCc4cccnc4)cc3)oc2C)cc1 | 379 | 290 | 402 | 0.263 µM | 0.0742 µM
CCc1ccc(C(=O)Nc2cc(CN3CCN(C)CC3)cc(C(F)(F)F)c2)cc1C#Cc1cnc2ccnn2c1 | 431 | 453 | 559 | 8.33 µM | 7.42 µM
COc1ncc(Nc2ncc([C@H](C)N3CCN([S+](C)(=O)[O-])CC3)cc2-c2nc(C)nc(N)n2)cc1F | 392 | 387 | 473 | 0.934 µM | 1.32 µM
CC/1=C/C(=O)N(O)/C(=C1)C2CCCCC2 | 528 | 505 | 570 | 7.42 µM | 10.5 µM
CCCOc1ccc(CCc2nc3cc(-c4c(C)noc4C)ccc3n2CCN2CCOCC2)cc1 | 479 | 482 | 567 | 20.9 µM | 14.8 µM
Cc1ccc(C(C)(O)c2nc3ccccc3s2)c(C)c1 (configuration not stated) | 464 | 421 | 511 | 16.6 µM | 8.33 µM
COc1ccc(CCN(C)CCCC(C#N)(c2ccc(OC)c(OC)c2)C(C)C)cc1OC (configuration not stated) | 397 | 397 | 490 | 23.5 µM | 29.5 µM
NC(=O)c1ccc2[nH]c(-c3ccc(Oc4ccc(Cl)cc4)cc3)nc2c1 | 507 | 450 | 573 | 26.3 µM | 33.2 µM
Cc1cccc(-c2[nH]c(C(C)(C)C)nc2-c2ccc3c(c2)OCO3)n1 | 481 | 426 | 595 | 11.8 µM | 5.25 µM
Cc1c(C(=O)Nc2ccc(N3C[C@@H](C)O[C@@H](C)C3)nc2)cccc1-c1ccc(OC(F)(F)F)cc1 | 572 | 519 | – | 20.9 µM | 18.6 µM
C[C@@H](NCCCc1cccc(C(F)(F)F)c1)c1cccc2ccccc12 | 501 | 467 | – | 13.2 µM | 10.5 µM
CCOC(CN1C(=O)[C@](CC(=O)Nc2ccc(C)cc2)(NC(=O)Nc2ccc(C)cc2)c2ccccc21)OCC | 537 | 432 | – | 29.5 µM | 37.2 µM
Cc1c(-c2ccc(O)cc2)n(Cc2ccc(OCCN3CCCCCC3)cc2)c2ccc(O)cc12 | 508 | 496 | – | 23.5 µM | 29.5 µM
CCC(=O)O[C@@]1([C@@H](C)C[C@H]2[C@@H]3CCC/4=C/C(=O)/C=C\[C@]4(C)[C@@]3(F)[C@@H](O)C[C@]12C)C(=O)CCl | 503 | 475 | – | 20.9 µM | 20.9 µM
CN1CCN(C2CCN(C(=O)Nc3cc(Oc4ccc(NC(=O)C5(C(=O)Nc6ccc(F)cc6)CC5)c(F)c4)ccn3)CC2)CC1 | 453 | 392 | – | 20.9 µM | 29.5 µM
CCN1C(=O)N\2CC3=CC(=CC(=C3[C@@H](C)\C=C2C14CCN(CC4)CC5=CC(=CC(=C5)C)C)OC)OC | 514 | 426 | – | 18.6 µM | 37.2 µM
O=C1Nc2ccc(Cl)cc2[C@@](C#CC2CC2)(C(F)(F)F)O1 [listing 2 of 2 here] | 504 | 471 | – | 20.9 µM | 29.5 µM
CC(C)C[C@H](NC(=O)c1cc2ccccc2s1)C(=O)N1CCN(C(=O)[C@H](CO)N[S+](=O)([O-])c2ccc(Cl)cc2Cl)CC1 | 494 | 445 | – | 18.6 µM | 16.6 µM

Compound | area under concentration-response curve (NCI-H295R [1]) | area under concentration-response curve (CU-ACC1 [2]) | area under concentration-response curve (CU-ACC2) | AC50 viability (NCI-H295R [3]) | AC50 viability (CU-ACC1 [4])
COC1=CC2=C(C=C1OC)[C@H]3[C@@H](CO2)OC4=C(C=CC5=C4\C=C/C(C)(C)O5)C3=O | 510 | 342 | – | 16.6 µM | 0.372 µM
Cl.Cl.Cl.O[C@@H](COc1cccc2ncccc12)CN1CCN([C@@H]2c3ccccc3[C@@H]3[C@H](c4ccccc42)C3(F)F)CC1 | 490 | 515 | – | 16.6 µM | 23.5 µM
CCN1CCC(n2cc(CNc3cc(Cl)c4ncc(C#N)c(Nc5ccc(F)c(Cl)c5)c4c3)nn2)CC1 | 494 | 456 | – | 23.5 µM | 16.6 µM
NCC1CCN(c2nccc(-c3ccc4ccccc4c3)n2)CC1 | 492 | 477 | – | 16.6 µM | 23.5 µM
CN(C)CCCN1c2ccccc2CCc2ccc(Cl)cc21 | 535 | 473 | – | 23.5 µM | 18.6 µM
C[C@@H]\1COC(=N1)\NC2=CC3=C(C=C2)N=CN=C3NC4=CC(=C(OCC5=NC=CS5)C=C4)Cl | 522 | 509 | – | 41.7 µM | 20.9 µM
Clc1cc(Cl)cc(CNc2ncncc2-c2ccc3c(c2)OCO3)c1 | 430 | 412 | – | 13.2 µM | 14.8 µM
CN(C)C(=O)C(CCN1CCC(O)(c2ccc(Cl)cc2)CC1)(c1ccccc1)c1ccccc1 | 549 | 506 | – | 20.9 µM | 16.6 µM
COCc1c(-c2ccc(NC(=O)Nc3cc(C(F)(F)F)ccc3F)c(F)c2)c2c(N)ncnn2c1CN1CCOCC1 | 363 | 342 | – | 6.61 µM | 8.33 µM
CN(C)CCCNC(=O)c1ccc(-c2cc(O)c3ncccc3c2)cc1 | 360 | 376 | – | 0.332 µM | 16.6 µM
CC[C@H](C)[N]1C=C(C)C2=C1C=C(C=C2C(=O)NC\C3=C(C)\C=C(\C)NC3=O)C4=CC=C(N=C4)N5CCNCC5 | 493 | 449 | – | 23.5 µM | 18.6 µM
FC(F)(F)C1=CC=C2C(SCCCCCO\C3=C\O\C(CN4CCOCC4)=C/C3=O)=CC=NC2=C1 | 324 | 295 | – | 18.6 µM | 8.33 µM
Cc1c(C(=O)NN2CCCCC2)nn(-c2ccc(Cl)cc2Cl)c1-c1ccc(Cl)cc1 | 433 | 396 | – | 18.6 µM | 20.9 µM
NC(=O)N1CCC(CC(=O)N2CCC([C@H]3c4ncc(Br)cc4CCc4cc(Cl)cc(Br)c43)CC2)CC1 | 440 | 440 | – | 23.5 µM | 37.2 µM
Clc1ccc(C(c2ccccc2Cl)C(Cl)Cl)cc1 (configuration not stated) | 432 | 426 | – | 20.9 µM | 18.6 µM
NCCCN([C@H](CC#C)C/1=N/C2=C(C=CC(=C2)Cl)C(=O)N1NC3=CC=CC=C3)C(=O)C4=CC=CC(=C4F)Cl | 484 | 429 | – | 20.9 µM | 33.2 µM
COC1=CC=C2[N](CCCN(C)C)C=C(C2=C1)C/3=C(/C(=O)NC3=O)C4=C[NH]C5=C4C=CC=C5 | 547 | 514 | – | 26.3 µM | 26.3 µM
Cc1ccc(F)c(NC(=O)Nc2ccc(-c3cccc4[nH]nc(N)c34)cc2)c1 | 506 | 497 | – | 26.3 µM | 18.6 µM
CC(C)n1cnc2c(NCCCCCCNC(=O)OC(C)(C)C)nc(NCCO)nc21 | 481 | 414 | – | 23.5 µM | 16.6 µM
